This passage reports IC50, inhibition and inhibition in vivo results from patent US9434711B2 (Janssen Pharmaceutica, NV, priority 2007, dated 2016).

In one assay the target is canine TRPM8 (Canis lupus familiaris, UniProt Q1A7N1). Briefly: In Vitro Canine TRPM8 Functional Assay (Ca2+ fluorescence, icilin activation). The note with it: for IC50: HEK293 cells stably expressing canine TRPM8, icilin activation, eight-point dose-response, read-out: IC50; for inhibition at 0.5 µM: compound at 0.5 μM, read-out: % Inh @ 0.5; for inhibition at 0.5 µM / inhibition at 0.2 µM: canine TRPM8, icilin activation; for inhibition at 0.2 µM: compound at 0.2 μM, read-out: % Inh @ 0.2. The format is cell-based. The method in brief:
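Eight-point dose-response curves, each point averaging quadruplicate wells, gave EC50 or IC50. Canine TRPM8-expressing HEK293 cells, dye-loaded (Calcium 3), were pre-exposed 5 min to compound, then challenged with icilin at roughly EC80; intracellular Ca2+ read by FLIPR or FDSS fluorescence.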

Assay [1] relates to Male Sprague Dawley rats. Briefly: Reversal of Icilin-Induced Behaviors in Rats. It counts as in vivo. The note with it: Rattus norvegicus, po, 1 h, 30 mg/kg p.o., 1 h post-icilin. The protocol:
Male Sprague Dawley rats (225-450 g, Charles River Labs, n=4-6/treatment) were used to evaluate the ability of selected compounds of the formula (I) to reverse icilin-induced “wet-dog” shakes. Icilin was administered in PEG-400 or 10% solutol/H2O, at 1.0 or 3.0 mg/kg, i.p. and spontaneous “wet-dog” shakes (WDS) were counted 10-20 minutes post-icilin. […] Results are presented as a percent inhibition of shakes, which was calculated as [1-(test compound WDS count/vehicle WDS count)]×100.

For assay [2], the system named is Male Sprague Dawley rats. Briefly: Chronic Constriction Injury (CCI)-Induced Model of Neuropathic Pain, Acetone-Induced Hypersensitivity. The format is in vivo, rat. The note with it: Rattus norvegicus, 10% Solutol, CO2H form, read-out: Percent Inhibition.

Chain of canine TRPM8 (Q1A7N1 1-1104): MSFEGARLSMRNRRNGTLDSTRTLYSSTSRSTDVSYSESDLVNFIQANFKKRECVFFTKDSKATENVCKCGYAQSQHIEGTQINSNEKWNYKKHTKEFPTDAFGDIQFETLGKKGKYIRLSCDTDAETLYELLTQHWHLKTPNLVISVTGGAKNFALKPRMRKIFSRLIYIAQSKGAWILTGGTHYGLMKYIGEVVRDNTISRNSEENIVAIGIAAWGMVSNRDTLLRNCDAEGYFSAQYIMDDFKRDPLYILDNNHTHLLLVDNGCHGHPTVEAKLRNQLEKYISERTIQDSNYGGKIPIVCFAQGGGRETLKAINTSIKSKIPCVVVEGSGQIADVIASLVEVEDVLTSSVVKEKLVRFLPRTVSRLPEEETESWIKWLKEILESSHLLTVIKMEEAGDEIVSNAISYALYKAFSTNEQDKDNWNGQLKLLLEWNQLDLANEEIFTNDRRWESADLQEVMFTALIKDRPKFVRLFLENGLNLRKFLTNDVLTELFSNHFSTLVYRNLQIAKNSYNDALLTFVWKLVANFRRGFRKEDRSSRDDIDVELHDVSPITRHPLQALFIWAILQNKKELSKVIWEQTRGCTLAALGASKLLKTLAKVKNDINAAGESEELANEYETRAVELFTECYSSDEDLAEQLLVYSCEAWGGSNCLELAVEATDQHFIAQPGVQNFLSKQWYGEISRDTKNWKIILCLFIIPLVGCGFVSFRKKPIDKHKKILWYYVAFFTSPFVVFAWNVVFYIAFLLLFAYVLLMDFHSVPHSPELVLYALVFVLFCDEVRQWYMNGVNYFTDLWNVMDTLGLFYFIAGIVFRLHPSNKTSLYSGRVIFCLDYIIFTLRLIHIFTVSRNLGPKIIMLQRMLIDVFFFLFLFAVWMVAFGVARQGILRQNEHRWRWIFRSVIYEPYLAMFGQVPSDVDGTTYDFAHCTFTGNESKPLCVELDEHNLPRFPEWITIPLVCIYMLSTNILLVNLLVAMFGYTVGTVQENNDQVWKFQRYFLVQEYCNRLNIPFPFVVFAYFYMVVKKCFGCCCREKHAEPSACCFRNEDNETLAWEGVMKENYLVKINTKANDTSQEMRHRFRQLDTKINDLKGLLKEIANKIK

With `O=S(=O)(c1ccccc1)N(Cc1ccc(F)c(F)c1)c1sc2ccccc2c1Br` [Compound 148, N-(3-Bromo-benzo[b]thiophen-2-yl)-N-(3,4-difluoro-benzyl)-benzenesulfonamide], at canine TRPM8, the IC50 turned out to be 2.1 nM and the inhibition at 0.5 µM is 98%. For the same compound, the inhibition in vivo at 30 mg/kg with Male Sprague Dawley rats [1] was 33%.

Turning to `O=S(=O)(c1ccccc1)N(Cc1ccc(F)c(C(F)(F)F)c1)c1sc2ccccc2c1Cl` [Compound 7, N-(3-Chloro-benzo[b]thiophen-2-yl)-N-(4-fluoro-3-trifluoromethyl-benzyl)-benzenesulfonamide], on canine TRPM8, the IC50 was found to be 7.3 nM. For the same compound, the inhibition at 0.5 µM on canine TRPM8 was found to be 97%. The inhibition in vivo at 30 mg/kg is 65% in the assay on Male Sprague Dawley rats [1]; 66% in the assay with Male Sprague Dawley rats [2] (ip, 2 h, 30 mg/kg i.p., pretreatment 2 hr); 47% in the assay with Male Sprague Dawley rats [2] (po, 1 h, 30 mg/kg p.o., pretreatment 1 hr).

As for `O=S(=O)(c1cccnc1)N(Cc1ccc(F)c(C(F)(F)F)c1)c1sc2ccccc2c1Br` [Compound 188, N-(3-Bromo-benzo[b]thiophen-2-yl)-N-(4-fluoro-3-trifluoromethyl-benzyl)-pyridin-3-yl-sulfonamide], at canine TRPM8, the IC50 was 12.2 nM, the inhibition at 0.2 µM was found to be 99% and the inhibition at 0.5 µM was found to be 101%. Further, in the assay with Male Sprague Dawley rats [1], the inhibition in vivo at 30 mg/kg is 7%.

On to `Cc1c(N(Cc2ccc(F)c(F)c2)S(=O)(=O)c2ccccc2)sc2ccccc12` [Compound 125, N-(3,4-Difluoro-benzyl)-N-(3-methyl-benzo[b]thiophen-2-yl)-benzenesulfonamide], for which, at canine TRPM8, the IC50 came out at 5 nM and the inhibition at 0.5 µM came out at 99%. In addition, the inhibition in vivo at 30 mg/kg in the assay on Male Sprague Dawley rats [1] is 39%.

Turning to `Cc1c(N(Cc2cccc3cccnc23)S(=O)(=O)c2cccnc2)sc2ccccc12` [Compound 14, N-(3-Methyl-benzo[b]thiophen-2-yl)-N-(quinolin-8-ylmethyl)-pyridine-3-sulfonamide], on canine TRPM8, the IC50 was found to be 18.9 nM and the inhibition at 0.5 µM was 99%. Besides, the inhibition in vivo at 30 mg/kg in the assay on Male Sprague Dawley rats [1] is -16%.

In the case of `O=S(=O)(c1ccccc1)N(Cc1ccccn1)c1sc2ccccc2c1Br` [Compound 168, N-(3-Bromo-benzo[b]thiophen-2-yl)-N-(pyridin-2-ylmethyl)-benzenesulfonamide], at canine TRPM8, the IC50 turned out to be 14.2 nM and the inhibition at 0.5 µM turned out to be 96%. Moreover, the inhibition in vivo at 30 mg/kg in the assay on Male Sprague Dawley rats [1] was -29%.

For `O=S(=O)(c1cccnc1)N(Cc1ccc(F)c(F)c1)c1sc2ccccc2c1Br` [Compound 149, N-(3-Bromo-benzo[b]thiophen-2-yl)-N-(3,4-difluoro-benzyl)-pyridin-3-yl-sulfonamide], at canine TRPM8, the IC50 came out at 7.1 nM, the inhibition at 0.2 µM worked out at 102% and the inhibition at 0.5 µM came out at 101%. The inhibition in vivo at 30 mg/kg with Male Sprague Dawley rats [1] is -3%.

For `O=S(=O)(c1ccccc1)N(Cc1ccc(OC(F)(F)F)cc1)c1sc2ccccc2c1Br` [Compound 174, N-(3-Bromo-benzo[b]thiophen-2-yl)-N-(4-trifluoromethoxy-benzyl)-benzenesulfonamide], at canine TRPM8, the IC50 stood at 2.5 nM and the inhibition at 0.5 µM came out at 99%. For the same compound, the inhibition in vivo at 30 mg/kg in the assay on Male Sprague Dawley rats [1] was determined as 45%.
